In ChEMBL document CHEMBL1201862, “PubChem BioAssay data set” (2004):
Active and inactive are the calls of the source.

Legend:
[1] = cytotoxicity in HEK-293T cells, dose response, cytotoxicity control for TCR NF-kB inhibitor project, luminescence, T-cell screen hits (AID 489026); assay type: functional, cell-based;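 further: cells exposed to compound about 14 hours before the viability readout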
[2] = cytotoxicity toward DRD oncogenic fibroblasts, dose response, cell-based, non-viral oncogenic, luminescence (AID 1934); assay type: functional; settings: Homo sapiens
BJ [3] = test: cells; assay type: functional, cell-based; settings: Homo sapiens
BJ [4] = test: cytotoxicity toward BJ-TERT fibroblasts, dose response, cell-based, RAS-independent, luminescence (AID 1933); assay type: functional; settings: Homo sapiens
BJ [5] = test: cytotoxicity toward BJ-TERT-LT-ST fibroblasts, dose response, cell-based, RAS-independent, luminescence (AID 1935); assay type: functional; settings: Homo sapiens;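 further: BJ fibroblasts immortalized with TERT plus LT and ST oncogenes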
Cytochrome P450 3A4 = Cytochrome P450 3A4 (Homo sapiens, UniProt P08684); settings: Potency;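 further: confirmatory qHTS run detecting inhibitors and substrates of CYP3A4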
Hexokinase = biological target: T1, Hexokinase (Trypanosoma brucei, UniProt Q38C41); test: Confirmation assay for inhibitors of Trypanosoma brucei hexokinase 1-Analogue-first series. [Related pubchem assays (depositor defined):AID1430, AID1632, AID2516, AID2560, AID2579, AID2600, AID449725, AID492951]; assay type: functional
T1 sequence (Q38C41 whole entry): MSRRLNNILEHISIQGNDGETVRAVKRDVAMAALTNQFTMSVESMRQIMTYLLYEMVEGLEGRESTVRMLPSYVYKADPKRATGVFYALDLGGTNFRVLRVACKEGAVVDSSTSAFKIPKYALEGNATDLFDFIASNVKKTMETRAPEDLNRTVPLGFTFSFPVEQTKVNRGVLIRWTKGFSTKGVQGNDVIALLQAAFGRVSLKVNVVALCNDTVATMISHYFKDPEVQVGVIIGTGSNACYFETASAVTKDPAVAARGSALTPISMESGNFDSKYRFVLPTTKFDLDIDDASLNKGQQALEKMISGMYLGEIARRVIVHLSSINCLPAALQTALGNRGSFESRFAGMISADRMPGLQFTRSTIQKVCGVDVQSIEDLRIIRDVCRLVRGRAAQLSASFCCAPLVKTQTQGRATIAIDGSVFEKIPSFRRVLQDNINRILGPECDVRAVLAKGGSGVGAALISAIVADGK

[6] = biological target: T2, Ubiquitin-conjugating enzyme E2 N (Homo sapiens, UniProt P61088); assay type: functional;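 further: Dose-response confirmation in a TR-FRET assay detecting UBC13-driven polyubiquitin chain formation, inhibition measured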
T2 sequence (P61088 whole entry): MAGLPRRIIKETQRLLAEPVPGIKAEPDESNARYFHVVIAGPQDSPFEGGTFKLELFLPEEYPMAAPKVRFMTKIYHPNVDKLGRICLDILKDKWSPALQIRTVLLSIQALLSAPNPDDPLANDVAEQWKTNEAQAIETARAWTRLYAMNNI

[7] = biological target: Heat shock protein HSP 90-alpha (Homo sapiens, UniProt P07900); assay type: functional, organism-based
cells [8] = assay type: functional, cell-based
cells [9] = assay type: functional, cell-based; remark: listed apart in the source
[10] = NIH:OVCAR-3 ovarian cancer cell cytotoxicity, dose response, PAX8 inhibitor project, plate reader, dry powder samples (AID 743044); assay type: functional, cell-based
Paired box protein Pax-8 = Paired box protein Pax-8 (Homo sapiens, UniProt Q06710); test: inhibitors of PAX8-driven TPO luciferase reporter, dose response, RMG-I cells, cherry-pick (AID 687027); assay type: functional, cell-based;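 further: luciferase reporter driven by Pax8 target thyroperoxidase promoter measured by SteadyGlo luminescence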
[11] = cytotoxicity in OVCAR8 ovarian cancer cells, dose response, PAX8 project, cell-based, plate reader, dry powder samples (AID 743197); assay type: functional; settings: OVCAR-8
[12] = non-specific cell cytotoxicity, dose response, cytotoxicity control for PAX8 inhibitor project, plate reader, dry powder samples (AID 743021); assay type: functional, cell-based
[13] = cytotoxicity toward NIH3T3 fibroblasts, dose response, counter-screen, cell-based, ATP luminescence, mouse fibroblasts (AID 2010); assay type: functional;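 further: cells exposed to compound for about 90 hours before reading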
[14] = tested on: Streptococcus sp. 'group A'; test: growth inhibition of control SK(-) GAS strain, dose response, counter-screen for streptokinase expression inhibitor project, luminescence, kanamycin, BacTiterGlo, confirmation (AID 1900); assay type: functional, organism-based
BJ [15] = test: cytotoxicity toward Ras-transformed BJeLR fibroblasts, dose response, cell-based, alamar blue fluorescence, cherrypicked samples (AID 2631); assay type: functional; settings: Homo sapiens;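 further: confirmatory dose-response assay in RAS-dependent BJ fibroblasts engineered with TERT, LT and ST, with cytotoxicity read by fluorescence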
Streptococcus = test: Group A Streptococcus viability loss, dose response, counter-screen for streptokinase expression inhibitor project, luminescence, BacTiterGlo (AID 1915); assay type: functional, organism-based;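 further: potency for reduction of bacterial viability or growth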
[16] = inhibitors of intracellular T. cruzi replication, confirmation, NIH3T3 host cells, beta-gal luminescence (AID 2044); assay type: functional, cell-based;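 further: intracellular parasites grown in NIH/3T3 mouse fibroblasts as host cells; luminescent beta-galactosidase reporter signal from transgenic T. cruzi replicating inside host cells; inhibitors lower the luminescence signal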

Chain of Paired box protein Pax-8 (Q06710 whole entry): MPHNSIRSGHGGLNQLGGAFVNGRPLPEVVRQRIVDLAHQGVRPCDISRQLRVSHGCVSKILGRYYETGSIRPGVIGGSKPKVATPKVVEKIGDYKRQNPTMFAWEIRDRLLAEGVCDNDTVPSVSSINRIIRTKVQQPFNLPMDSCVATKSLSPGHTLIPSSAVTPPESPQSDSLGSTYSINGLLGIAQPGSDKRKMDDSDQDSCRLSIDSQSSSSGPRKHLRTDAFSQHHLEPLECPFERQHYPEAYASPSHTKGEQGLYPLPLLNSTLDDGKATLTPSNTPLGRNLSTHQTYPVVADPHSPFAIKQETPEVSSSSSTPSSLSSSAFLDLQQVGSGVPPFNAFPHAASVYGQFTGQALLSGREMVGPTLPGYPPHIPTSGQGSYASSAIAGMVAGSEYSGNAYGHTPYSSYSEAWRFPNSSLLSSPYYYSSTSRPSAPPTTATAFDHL
Chain of Cytochrome P450 3A4 (P08684 whole entry): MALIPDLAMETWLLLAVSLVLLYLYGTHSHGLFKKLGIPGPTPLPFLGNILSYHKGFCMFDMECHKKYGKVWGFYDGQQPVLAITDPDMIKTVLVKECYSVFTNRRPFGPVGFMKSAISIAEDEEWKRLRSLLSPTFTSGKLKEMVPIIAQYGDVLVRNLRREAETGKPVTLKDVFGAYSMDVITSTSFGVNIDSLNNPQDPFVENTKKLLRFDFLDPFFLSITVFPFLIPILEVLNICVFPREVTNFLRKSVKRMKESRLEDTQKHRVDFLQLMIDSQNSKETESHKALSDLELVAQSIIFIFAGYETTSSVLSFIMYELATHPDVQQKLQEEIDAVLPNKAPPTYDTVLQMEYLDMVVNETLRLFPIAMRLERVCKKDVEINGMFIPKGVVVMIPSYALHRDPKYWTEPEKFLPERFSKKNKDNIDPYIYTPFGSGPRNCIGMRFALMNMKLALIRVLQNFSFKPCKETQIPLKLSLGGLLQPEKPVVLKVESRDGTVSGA

For Clc1cccc(Cl)c1/C=N/Nc1c(Cl)cncc1Cl, the IC50 [1] was > 80 µM (inactive), the EC50 [2] was 4.33 µM (active) and the EC50 (BJ [3]) was > 150 µM (inconclusive). For the same molecule, the EC50 (BJ [4]) was 13.7 µM (active) and the EC50 (BJ [5]) was 76.6 µM (active).
For COC(=O)c1cccc(C23CC4(C2)[C@H](CN(C)[C@@H]4c2ccccc2)C3c2ccc(Cl)nc2)c1 (some centres not stated), the AC50 (Cytochrome P450 3A4) was 5.01 µM (inconclusive).
With O=C(Nc1ccccc1)n1sc2ccccc2c1=O the IC50 (Hexokinase) was > 25 µM (inactive).
With O=c1c2ccc(Br)cc2sn1-c1ccccc1 the IC50 (Hexokinase) was 3.61 µM (active).
With COc1ccccc1C(=O)Nc1cc(Cl)ccc1C(=O)O the IC50 (Hexokinase) was > 25 µM (inactive).
For O=C(Nc1cc(Cl)ccc1C(=O)O)c1ccncc1, the IC50 (Hexokinase) was > 25 µM (inactive).
In the case of O=c1c2ccccc2on1-c1ccccc1, the IC50 (Hexokinase) is reported as > 25 µM (inactive).
With COc1ccccc1NC(=O)COC(=O)C12CC3CC(CC(Br)(C3)C1)C2 the IC50 [6] was > 20 µM (inactive).
With Cc1nnc(C)n1/N=C/c1cc(Br)cc(Br)c1O the AC50 [7] was 1.68 µM (active).
With CCOc1ccc(N2C(=O)CC(Sc3nc(C)cc(C)n3)C2=O)cc1 (configuration not stated) the EC50 (cells [8]) was > 350 µM (not active) and the EC50 (cells [9]) was > 350 µM (not active).
For C[C@H]1CCCCO[C@@H](CN(C)Cc2ccc3c(c2)OCO3)[C@@H](C)CN([C@@H](C)CO)C(=O)c2cc(NC(=O)Nc3ccc(F)cc3)ccc2O1, the AC50 [10] was 31.2 µM (active) and the AC50 (Paired box protein Pax-8) was 22 µM (active).
For C[C@H](CO)N1C[C@H](C)[C@H](CN(C)Cc2ccc(C(F)(F)F)cc2)OCCCC[C@H](C)Oc2ccc(NC(=O)CCC(F)(F)F)cc2C1=O, the AC50 [10] was 14.8 µM (active), the AC50 (Paired box protein Pax-8) was 5.89 µM (active) and the AC50 [11] was 63.8 µM (active).
For C[C@@H]1CN([C@@H](C)CO)S(=O)(=O)c2ccc(C#Cc3ccccc3F)cc2O[C@H]1CN(C)C(=O)Cc1ccccc1, the AC50 [10] was 14.5 µM (active), the AC50 [12] was 25.5 µM (active) and the AC50 (Paired box protein Pax-8) was 5.88 µM (active). For the same molecule, the AC50 [11] was 37.6 µM (active).
In the case of O=c1cc(-c2ccccc2O)oc2c(O)c(O)ccc12, the AC50 (Cytochrome P450 3A4) is reported as 31.6 µM (inconclusive).
In the case of CC1(C)N=C(N)N=C(N)N1c1ccc(Oc2ccc(Cl)cc2)c(Cl)c1, the EC50 [13] is reported as 14.3 µM (active), the EC50 [14] is reported as < 0.06 µM (active) and the EC50 (BJ [15]) is reported as > 133 µM (inactive). The EC50 (Streptococcus) was 0.085 µM (active) and the EC50 [16] was 0.177 µM (active).
In the case of CC(C)(O)C(=O)Nc1ccc([N+](=O)[O-])c(C(F)(F)F)c1 [HYDROXYFLUTAMIDE], the AC50 (Cytochrome P450 3A4) is reported as 25.1 µM (inconclusive).
With COC(=O)c1cc(OC)c(=O)c2c(OC)c(OC)ccc2c1 [METHYL 7-DESOXYPURPUROGALLIN-7-CARBOXYLATE TRIMETHYL ETHER] the AC50 (Cytochrome P450 3A4) was 39.8 µM (inconclusive).
